Laboratory results as given in patent US20250312352A1, “GLP-1R MODULATING COMPOUNDS” (Gilead Sciences, Inc., priority 2021, published 2025).

target: T1, GLP-1R (Homo sapiens, UniProt P43220); test: GLP-1R activation cAMP assay (Assay 1 or Assay 2); type: cell-based; settings: cAMP increase in CHO cells stably expressing GLP-1R; compounds run on one of the two cAMP assays
T1 construct: host or cells: CHO cells
How it was run: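 CHO cells stably expressing human GLP-1R were incubated 1 h in HBSS/20 mM HEPES/0.1% BSA, then exposed to 10-point agonist dilutions for 30 min at 37 °C. cAMP increase was measured with an HTRF Gs dynamic kit; EC50 from sigmoidal fit of response versus log concentration.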

T1 sequence (P43220 24-463): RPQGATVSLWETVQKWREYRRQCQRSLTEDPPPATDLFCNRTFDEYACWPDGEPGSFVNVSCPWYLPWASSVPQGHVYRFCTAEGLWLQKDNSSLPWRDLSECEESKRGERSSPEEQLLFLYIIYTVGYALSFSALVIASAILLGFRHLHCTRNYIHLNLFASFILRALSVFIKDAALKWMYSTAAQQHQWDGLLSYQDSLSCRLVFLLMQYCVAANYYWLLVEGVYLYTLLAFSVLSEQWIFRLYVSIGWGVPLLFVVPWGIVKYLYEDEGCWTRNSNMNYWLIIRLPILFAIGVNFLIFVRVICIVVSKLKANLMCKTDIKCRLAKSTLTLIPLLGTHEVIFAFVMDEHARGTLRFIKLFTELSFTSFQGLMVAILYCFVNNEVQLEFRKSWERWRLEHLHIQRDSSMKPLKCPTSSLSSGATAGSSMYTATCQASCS

In order of falling EC50:
1. O=C(O)c1ccc2nc(Cc3cc(F)c(-c4cccc(OCc5ncc(-c6ccc(C(F)(F)F)cc6)s5)n4)cc3F)n(C[C@H]3CCO3)c2c1 [Example 382, (R)-2-(2,5-difluoro-4-(6-((5-(4-(trifluoromethyl)phenyl)thiazol-2-yl)methoxy)pyridin-2-yl)benzyl)-1-(oxetan-2-ylmethyl)-1H-benzo[d]imidazole-6-carboxylic acid]  1.27 nM
2. CNC(=O)c1cc(Cl)c(COc2cccc(-c3cc(F)c(Cc4nc5c(F)cc(C(=O)O)cc5n4C[C@@H](C)OC)cc3F)n2)cn1 [Example 393, (R)-2-(4-(6-((4-chloro-6-(methylcarbamoyl)pyridin-3-yl)methoxy)pyridin-2-yl)-2,5-difluorobenzyl)-4-fluoro-1-(2-methoxypropyl)-1H-benzo[d]imidazole-6-carboxylic acid]  0.777 nM
3. CCOc1nnc(COc2cccc(-c3cc(F)c(Cc4nc5ccc(C(=O)O)c(F)c5n4CCOC)cc3F)n2)s1 [Example 396, 2-(4-(6-((5-ethoxy-1,3,4-thiadiazol-2-yl)methoxy)pyridin-2-yl)-2,5-difluorobenzyl)-7-fluoro-1-(2-methoxyethyl)-1H-benzo[d]imidazole-6-carboxylic acid]  0.678 nM
4. CNC(=O)c1cc(Cl)c(COc2cccc(-c3cc(F)c(Cc4nc5c(F)cc(C(=O)O)cc5n4C[C@@H]4CCO4)cc3C)n2)cn1 [Example 394, (S)-2-(4-(6-((4-chloro-6-(methylcarbamoyl)pyridin-3-yl)methoxy)pyridin-2-yl)-2-fluoro-5-methylbenzyl)-4-fluoro-1-(oxetan-2-ylmethyl)-1H-benzo[d]imidazole-6-carboxylic acid]  0.62 nM
5. N#Cc1ccc(-c2cnc(COc3cccc(-c4cc(F)c(Cc5nc6ccc(C(=O)O)cc6n5C[C@@H]5CCO5)cc4F)n3)s2)cc1 [Example 383, (S)-2-(4-(6-((5-(4-cyanophenyl)thiazol-2-yl)methoxy)pyridin-2-yl)-2,5-difluorobenzyl)-1-(oxetan-2-ylmethyl)-1H-benzo[d]imidazole-6-carboxylic acid]  0.6 nM
6. O=C(O)c1ccc2nc(Cc3cc(F)c(-c4cccc(OCc5ncc(-c6ccc(Cl)cc6)s5)n4)cc3F)n(C[C@@H]3CCO3)c2c1 [Example 384, (S)-2-(4-(6-((5-(4-chlorophenyl)thiazol-2-yl)methoxy)pyridin-2-yl)-2,5-difluorobenzyl)-1-(oxetan-2-ylmethyl)-1H-benzo[d]imidazole-6-carboxylic acid]  0.563 nM
7. CCOc1nnc(COc2nc(-c3ccc(Cc4nc5ccc(C(=O)O)cc5n4[C@@H]4COCC4(C)C)c(F)c3)ccc2F)s1 [Example 397, (S)-1-(4,4-dimethyltetrahydrofuran-3-yl)-2-(4-(6-((5-ethoxy-1,3,4-thiadiazol-2-yl)methoxy)-5-fluoropyridin-2-yl)-2-fluorobenzyl)-1H-benzo[d]imidazole-6-carboxylic acid]  0.497 nM
8. COc1nnc(COc2cccc(-c3ccc(Cc4nc5ccc(C(=O)O)cc5n4[C@@H]4COCC4(C)C)c(F)c3)n2)s1 [Example 401, (S)-1-(4,4-dimethyltetrahydrofuran-3-yl)-2-(2-fluoro-4-(6-((5-methoxy-1,3,4-thiadiazol-2-yl)methoxy)pyridin-2-yl)benzyl)-1H-benzo[d]imidazole-6-carboxylic acid]  0.487 nM
9. COc1nnc(COc2cccc(-c3ccc(Cc4nc5ccc(C(=O)O)cc5n4[C@@H]4COCC4(C)C)cc3F)n2)s1 [Example 400, (S)-1-(4,4-dimethyltetrahydrofuran-3-yl)-2-(3-fluoro-4-(6-((5-methoxy-1,3,4-thiadiazol-2-yl)methoxy)pyridin-2-yl)benzyl)-1H-benzo[d]imidazole-6-carboxylic acid]  0.412 nM
10. Cn1cc(C#Cc2ccc(COc3cccc(-c4cc(F)c(Cc5nc6c(F)cc(C(=O)O)cc6n5C[C@@H]5CCO5)cc4F)n3)cn2)cn1 [Example 391, (S)-2-(2,5-difluoro-4-(6-((6-((1-methyl-1H-pyrazol-4-yl)ethynyl)pyridin-3-yl)methoxy)pyridin-2-yl)benzyl)-4-fluoro-1-(oxetan-2-ylmethyl)-1H-benzo[d]imidazole-6-carboxylic acid]  0.305 nM
11. O=C(O)c1cc(F)c2nc(Cc3cc(F)c(-c4cccc(OCc5ncc(C#CC6(C(F)F)CC6)cc5Cl)n4)cc3F)n(C[C@@H]3CCO3)c2c1 [Example 381, (S)-2-(4-(6-((3-chloro-5-((1-(difluoromethyl)cyclopropyl)ethynyl)pyridin-2-yl)methoxy)pyridin-2-yl)-2,5-difluorobenzyl)-4-fluoro-1-(oxetan-2-ylmethyl)-1H-benzo[d]imidazole-6-carboxylic acid]  0.301 nM
12. COc1nnc(COc2cc(-c3cc(F)c(Cc4nc5c(F)cc(C(=O)O)cc5n4C[C@@H]4CCO4)cc3F)ccc2F)s1 [Example 389, (S)-4-fluoro-1-(oxetan-2-ylmethyl)-2-((2,4′,5-trifluoro-3′-((5-methoxy-1,3,4-thiadiazol-2-yl)methoxy)-[1,1′-biphenyl]-4-yl)methyl)-1H-benzo[d]imidazole-6-carboxylic acid]  0.257 nM
13. O=C(O)c1cc(F)c2nc(Cc3cc(F)c(-c4cccc(OCc5ncc(C#Cc6cncs6)cc5F)n4)cc3F)n(C[C@@H]3CCO3)c2c1 [Example 390, (S)-2-(2,5-difluoro-4-(6-((3-fluoro-5-(thiazol-5-ylethynyl)pyridin-2-yl)methoxy)pyridin-2-yl)benzyl)-4-fluoro-1-(oxetan-2-ylmethyl)-1H-benzo[d]imidazole-6-carboxylic acid]  0.235 nM
14. CNC(=O)c1cc(Cl)c(COc2cccc(-c3ccc(Cc4nc5ccc(C(=O)O)cc5n4CC4(CF)CC4)c(F)c3)n2)cn1 [Example 402, 2-(4-(6-((4-chloro-6-(methylcarbamoyl)pyridin-3-yl)methoxy)pyridin-2-yl)-2-fluorobenzyl)-1-((1-(fluoromethyl)cyclopropyl)methyl)-1H-benzo[d]imidazole-6-carboxylic acid]  0.208 nM
15. Cn1cc(C#Cc2cnc(COc3cccc(-c4cc(F)c(Cc5nc6c(F)cc(C(=O)O)cc6n5C[C@@H]5CCO5)cc4F)n3)c(F)c2)cn1 [Example 392, (S)-2-(2,5-difluoro-4-(6-((3-fluoro-5-((1-methyl-1H-pyrazol-4-yl)ethynyl)pyridin-2-yl)methoxy)pyridin-2-yl)benzyl)-4-fluoro-1-(oxetan-2-ylmethyl)-1H-benzo[d]imidazole-6-carboxylic acid]  0.206 nM
16. Cn1cncc1C#Cc1ccc(COc2cccc(-c3cc(F)c(Cc4nc5c(F)cc(C(=O)O)cc5n4C[C@@H]4CCO4)cc3F)n2)c(F)c1 [Example 395, (S)-2-(2,5-difluoro-4-(6-((2-fluoro-4-((1-methyl-1H-imidazol-5-yl)ethynyl)benzyl)oxy)pyridin-2-yl)benzyl)-4-fluoro-1-(oxetan-2-ylmethyl)-1H-benzo[d]imidazole-6-carboxylic acid]  0.197 nM
17. CNC(=O)c1cc(Cl)c(COc2cc(-c3cc(F)c(Cc4nc5c(F)cc(C(=O)O)cc5n4C[C@@H]4CCO4)cc3F)ccc2F)cn1 [Example 388, (S)-2-((3′-((4-chloro-6-(methylcarbamoyl)pyridin-3-yl)methoxy)-2,4′,5-trifluoro-[1,1′-biphenyl]-4-yl)methyl)-4-fluoro-1-(oxetan-2-ylmethyl)-1H-benzo[d]imidazole-6-carboxylic acid]  0.186 nM
18. CNC(=O)c1cc(Cl)c(COc2cccc(-c3cc(Cl)c(Cc4nc5c(F)cc(C(=O)O)cc5n4CCOC)cc3F)n2)cn1 [Example 386, 2-(2-chloro-4-(6-((4-chloro-6-(methylcarbamoyl)pyridin-3-yl)methoxy)pyridin-2-yl)-5-fluorobenzyl)-4-fluoro-1-(2-methoxyethyl)-1H-benzo[d]imidazole-6-carboxylic acid]  0.121 nM
19. O=C(O)c1ccc2nc(Cc3cc(F)c(-c4cccc(OCc5nnc(C6CC(F)(F)C6)s5)n4)cc3F)n(C[C@@H]3CCO3)c2c1 [Example 385, (S)-2-(4-(6-((5-(3,3-difluorocyclobutyl)-1,3,4-thiadiazol-2-yl)methoxy)pyridin-2-yl)-2,5-difluorobenzyl)-1-(oxetan-2-ylmethyl)-1H-benzo[d]imidazole-6-carboxylic acid]  0.11 nM
20. O=C(O)c1cc(F)c2nc(Cc3cc(F)c(-c4ccc(F)c(OCc5ncc(-c6cnn(C(F)F)c6)s5)c4)cc3F)n(C[C@@H]3CCO3)c2c1 [Example 387, (S)-2-((3′-((5-(1-(difluoromethyl)-1H-pyrazol-4-yl)thiazol-2-yl)methoxy)-2,4′,5-trifluoro-[1,1′-biphenyl]-4-yl)methyl)-4-fluoro-1-(oxetan-2-ylmethyl)-1H-benzo[d]imidazole-6-carboxylic acid]  0.095 nM
21. O=C(O)c1cc(F)c2nc(Cc3cc(F)c(-c4cccc(OCc5ncc(C#CC6(CF)CC6)cc5Cl)n4)cc3F)n(C[C@@H]3CCO3)c2c1 [Example 380, (S)-2-(4-(6-((3-chloro-5-((1-(fluoromethyl)cyclopropyl)ethynyl)pyridin-2-yl)methoxy)pyridin-2-yl)-2,5-difluorobenzyl)-4-fluoro-1-(oxetan-2-ylmethyl)-1H-benzo[d]imidazole-6-carboxylic acid]  0.078 nM
22. CNC(=O)c1cc(Cl)c(COc2cccc(-c3cc(F)c(Cc4nc5c(F)cc(C(=O)O)cc5n4CC4(CF)CC4)c(F)c3F)n2)cn1 [Example 398, 2-(4-(6-((4-chloro-6-(methylcarbamoyl)pyridin-3-yl)methoxy)pyridin-2-yl)-2,3,6-trifluorobenzyl)-4-fluoro-1-((1-(fluoromethyl)cyclopropyl)methyl)-1H-benzo[d]imidazole-6-carboxylic acid]  0.017 nM
23. CNC(=O)c1cc(Cl)c(COc2cccc(-c3ccc(Cc4nc5ccc(C(=O)O)cc5n4[C@@H]4COCC4(C)C)c(F)c3)n2)cn1 [Example 399, (S)-2-(4-(6-((4-chloro-6-(methylcarbamoyl)pyridin-3-yl)methoxy)pyridin-2-yl)-2-fluorobenzyl)-1-(4,4-dimethyltetrahydrofuran-3-yl)-1H-benzo[d]imidazole-6-carboxylic acid]  0.01 nM
